Here are results for one compound from patent US20230055961A1, “PENTAFLUOROBENZENESULFONAMIDE DERIVATIVES AND USES THEREOF” (Dunad Therapeutics Ltd., priority 2019, published 2023).

One test has as its target CSK (Homo sapiens, UniProt P41240). Put plainly: In vitro kinase inhibition studies (Table 13), CSK. The class given is biochemical.
Test [1] deals with normal pooled human fibroblasts. As to the kind of experiment: IC50 of Ibrutinib analogs against normal human cells, pooled human fibroblasts (Table 14). Particulars: Fibroblast, Table 14, normal human cell line. Format: cell-based. As to the method:
Anti-cancer efficacy of exemplary compounds of this application is assessed in vitro in different cancer cell lines. Cell viability is examined following treatment at various concentration of inhibitor (0.097656-50 μM) using a cell Titer-Blue cell viability assay. 1×10^4 cells (NHF cells)/well are plated in 96-well assay plates in culture medium. All cells are grown in DMEM, IMDM and RPMI-1640 supplemented with 10% FBS. After 24 hrs, test compounds and vehicle controls are added to appropriate wells so the final volume is […] in each well. The cells are cultured for the desired test exposure period (72 hrs) at 37° C. and 5% CO2. The assay plates are removed from 37° C. incubator and 20 μl/well of CellTiter-Blue® Reagent is added. The plates are incubated using standard cell culture conditions for 1-4 hours and the plates are shaken for 10 seconds and record fluorescence at 560/590 nm.
Therapeutic index=(IC50 human fibroblasts/IC50 RLcells)

The target of test [2] is T1, BTK (Homo sapiens, UniProt Q06187). As to the kind of experiment: Enzyme kinetic analysis of BTK inhibition (time-dependent inhibition). To be noted: 0.1 nM BTK, 500 μM ATP, 60-700 nM compound. The class given is biochemical. An excerpt: One of ordinary skill in the art will recognize that this is consistent with the irreversible inhibition of BTK by Compound 5-1.
Target sequence in this assay (Q06187 whole entry, species assumed): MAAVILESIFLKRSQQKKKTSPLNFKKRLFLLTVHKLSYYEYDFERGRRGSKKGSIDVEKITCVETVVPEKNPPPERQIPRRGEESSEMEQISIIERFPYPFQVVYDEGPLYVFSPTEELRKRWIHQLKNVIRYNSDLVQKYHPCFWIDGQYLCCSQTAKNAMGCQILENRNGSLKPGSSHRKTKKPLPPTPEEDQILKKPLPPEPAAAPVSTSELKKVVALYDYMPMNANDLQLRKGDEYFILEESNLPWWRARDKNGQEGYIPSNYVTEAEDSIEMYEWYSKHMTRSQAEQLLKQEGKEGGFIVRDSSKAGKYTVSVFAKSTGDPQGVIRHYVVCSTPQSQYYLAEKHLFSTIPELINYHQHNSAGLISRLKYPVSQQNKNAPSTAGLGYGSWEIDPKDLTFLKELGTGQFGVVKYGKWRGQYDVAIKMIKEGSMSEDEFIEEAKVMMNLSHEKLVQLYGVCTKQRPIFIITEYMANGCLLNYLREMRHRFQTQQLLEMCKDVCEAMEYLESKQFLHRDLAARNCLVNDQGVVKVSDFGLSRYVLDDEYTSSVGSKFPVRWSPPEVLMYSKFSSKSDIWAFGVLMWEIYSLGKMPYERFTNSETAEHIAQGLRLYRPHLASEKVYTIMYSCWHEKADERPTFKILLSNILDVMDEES

The next test addresses SRC (Homo sapiens, UniProt P12931). As to the kind of experiment: In vitro kinase inhibition studies (Table 13), SRC. The class given is biochemical.
In test [3] the target is T2, BMX (Homo sapiens, UniProt P51813).
T2 sequence (P51813 1-675): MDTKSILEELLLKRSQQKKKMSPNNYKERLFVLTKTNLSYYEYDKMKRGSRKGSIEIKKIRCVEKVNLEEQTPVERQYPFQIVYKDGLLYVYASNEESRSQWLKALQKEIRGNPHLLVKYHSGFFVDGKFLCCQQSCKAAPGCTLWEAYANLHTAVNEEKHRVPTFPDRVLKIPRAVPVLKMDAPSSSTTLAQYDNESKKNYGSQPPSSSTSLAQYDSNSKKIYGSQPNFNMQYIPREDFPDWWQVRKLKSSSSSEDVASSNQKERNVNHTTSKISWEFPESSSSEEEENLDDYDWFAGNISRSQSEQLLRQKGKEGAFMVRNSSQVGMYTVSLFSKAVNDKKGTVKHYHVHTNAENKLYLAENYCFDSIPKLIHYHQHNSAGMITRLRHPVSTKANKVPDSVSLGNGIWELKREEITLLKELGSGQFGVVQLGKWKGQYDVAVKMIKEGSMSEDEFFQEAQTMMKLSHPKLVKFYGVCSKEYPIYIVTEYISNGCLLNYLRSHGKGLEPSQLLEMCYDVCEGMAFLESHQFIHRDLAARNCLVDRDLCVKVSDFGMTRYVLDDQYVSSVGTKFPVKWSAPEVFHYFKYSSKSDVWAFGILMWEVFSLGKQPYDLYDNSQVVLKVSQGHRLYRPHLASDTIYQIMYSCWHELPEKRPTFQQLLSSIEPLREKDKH
As to the kind of experiment: In vitro kinase inhibition studies (Table 13), BMX. The class given is biochemical.

A further test has as its target FGFR4 (Homo sapiens, UniProt P22455). Put plainly: In vitro kinase inhibition studies (Table 9), FGFR4. Format: biochemical.
Another test deals with EGFR (Homo sapiens, UniProt P00533). As to the kind of experiment: In vitro kinase inhibition studies (Table 13), EGFR. The class given is biochemical.
The target in test [4] is T2, BMX. Put plainly: In vitro kinase inhibition studies (Table 9), BMX. The class given is biochemical.
In a further test the target is ERBB2 (Homo sapiens, UniProt P04626). As to the kind of experiment: In vitro kinase inhibition studies (Table 13), ERBB2. The class given is biochemical.
Sequence of ERBB2 (P04626 23-1255, species assumed): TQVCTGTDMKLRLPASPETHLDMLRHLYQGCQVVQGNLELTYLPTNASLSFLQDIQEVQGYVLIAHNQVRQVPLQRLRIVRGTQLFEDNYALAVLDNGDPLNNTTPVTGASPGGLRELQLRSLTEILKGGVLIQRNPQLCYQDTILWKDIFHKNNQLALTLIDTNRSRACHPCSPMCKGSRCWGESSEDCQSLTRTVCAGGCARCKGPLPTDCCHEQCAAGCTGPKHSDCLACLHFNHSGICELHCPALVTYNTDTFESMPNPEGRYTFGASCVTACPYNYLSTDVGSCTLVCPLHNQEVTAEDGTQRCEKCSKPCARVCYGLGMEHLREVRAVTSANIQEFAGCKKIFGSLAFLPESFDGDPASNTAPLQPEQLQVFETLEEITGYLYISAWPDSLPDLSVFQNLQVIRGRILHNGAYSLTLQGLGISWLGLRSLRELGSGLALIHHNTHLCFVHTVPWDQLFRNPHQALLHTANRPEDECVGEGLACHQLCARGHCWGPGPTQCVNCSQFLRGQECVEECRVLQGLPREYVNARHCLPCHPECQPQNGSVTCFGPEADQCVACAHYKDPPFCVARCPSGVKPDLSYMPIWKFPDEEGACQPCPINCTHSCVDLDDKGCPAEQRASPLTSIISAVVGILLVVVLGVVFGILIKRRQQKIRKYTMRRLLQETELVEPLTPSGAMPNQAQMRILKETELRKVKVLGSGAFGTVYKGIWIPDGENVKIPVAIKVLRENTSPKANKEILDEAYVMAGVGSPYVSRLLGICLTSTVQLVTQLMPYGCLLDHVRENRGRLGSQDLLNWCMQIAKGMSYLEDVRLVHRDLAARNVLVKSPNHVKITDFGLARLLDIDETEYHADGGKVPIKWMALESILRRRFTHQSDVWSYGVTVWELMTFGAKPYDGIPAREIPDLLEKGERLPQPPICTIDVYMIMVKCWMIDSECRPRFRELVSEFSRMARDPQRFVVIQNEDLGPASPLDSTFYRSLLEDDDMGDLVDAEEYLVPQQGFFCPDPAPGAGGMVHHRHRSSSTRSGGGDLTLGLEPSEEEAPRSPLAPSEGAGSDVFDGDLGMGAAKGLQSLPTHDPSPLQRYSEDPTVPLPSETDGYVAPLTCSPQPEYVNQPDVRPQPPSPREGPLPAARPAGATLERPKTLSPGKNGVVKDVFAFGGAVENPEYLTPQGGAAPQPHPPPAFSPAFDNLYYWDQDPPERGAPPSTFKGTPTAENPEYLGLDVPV
The target in the next test is ERBB4 (Homo sapiens, UniProt Q15303). Put plainly: In vitro kinase inhibition studies (Table 13), ERBB4. The class given is biochemical.
Sequence of ERBB4 (Q15303 26-1308, species assumed): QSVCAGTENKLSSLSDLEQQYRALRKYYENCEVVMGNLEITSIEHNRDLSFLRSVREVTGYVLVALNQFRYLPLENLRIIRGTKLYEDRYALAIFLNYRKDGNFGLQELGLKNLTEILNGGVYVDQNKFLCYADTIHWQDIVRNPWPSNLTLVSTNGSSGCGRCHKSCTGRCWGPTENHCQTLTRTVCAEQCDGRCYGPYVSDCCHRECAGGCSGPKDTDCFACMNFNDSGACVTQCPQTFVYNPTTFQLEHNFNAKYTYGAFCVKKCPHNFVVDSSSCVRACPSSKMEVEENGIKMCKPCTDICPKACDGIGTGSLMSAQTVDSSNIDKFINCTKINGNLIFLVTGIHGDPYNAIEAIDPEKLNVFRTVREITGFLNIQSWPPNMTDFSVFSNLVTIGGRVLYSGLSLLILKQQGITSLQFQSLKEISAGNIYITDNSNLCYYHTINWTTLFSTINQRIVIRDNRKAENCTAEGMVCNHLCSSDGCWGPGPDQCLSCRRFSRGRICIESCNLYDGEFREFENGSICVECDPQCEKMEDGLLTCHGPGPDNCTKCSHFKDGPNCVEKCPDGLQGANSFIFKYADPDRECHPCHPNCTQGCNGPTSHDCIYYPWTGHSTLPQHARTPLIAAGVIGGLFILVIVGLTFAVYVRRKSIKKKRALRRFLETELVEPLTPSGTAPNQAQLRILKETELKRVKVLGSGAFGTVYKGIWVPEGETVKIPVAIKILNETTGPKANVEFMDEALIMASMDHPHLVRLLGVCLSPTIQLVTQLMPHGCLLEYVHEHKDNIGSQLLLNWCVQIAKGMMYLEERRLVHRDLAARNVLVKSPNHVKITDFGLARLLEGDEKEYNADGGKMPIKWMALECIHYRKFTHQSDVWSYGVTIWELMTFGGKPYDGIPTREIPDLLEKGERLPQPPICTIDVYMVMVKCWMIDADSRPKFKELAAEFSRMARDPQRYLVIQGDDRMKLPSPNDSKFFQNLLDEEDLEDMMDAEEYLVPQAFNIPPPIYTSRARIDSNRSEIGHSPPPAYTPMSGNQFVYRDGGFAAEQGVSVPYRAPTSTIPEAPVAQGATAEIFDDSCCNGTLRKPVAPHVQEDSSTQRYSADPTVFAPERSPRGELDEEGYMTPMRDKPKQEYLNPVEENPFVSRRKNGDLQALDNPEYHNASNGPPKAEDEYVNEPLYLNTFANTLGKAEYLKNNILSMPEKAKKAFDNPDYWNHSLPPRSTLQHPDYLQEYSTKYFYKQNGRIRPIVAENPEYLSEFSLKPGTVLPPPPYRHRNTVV
In test [5] the target is T1, BTK. As to the kind of experiment: Covalent modification of BTK by mass spectrometry of the intact protein. Format: binding. More on the design: His-tagged BTK kinase domain was prepared from pET-28b(+)-BTK (402-655) vector. Particulars: 10 μM BTK, 50 μM compound, 2 hours at 30° C.; expected 596 Da. Here is the method: After incubation of 10 μM BTK in the presence of 50 μM Compound 5-1 for 2 hours at 30° C., the mass of the modified protein was determined by mass spectrometry. […] After incubation with Compound 5-1, the intensity of this had decreased by an order of magnitude, and the most intense peak is consistent with the protein whose mass was increased by 595 Da, corresponding closely to the expected mass of the inhibitor Compound 5-1 (less one fluoride from inhibitor, and one proton from protein, 596 Da).

Another test addresses BLK (Homo sapiens, UniProt P51451). Put plainly: In vitro kinase inhibition studies (Table 13), BLK. The class given is biochemical.

Structures are written as SMILES. pIC50: −log10 of the molar value.

Sequence of BLK (P51451 whole entry, species assumed): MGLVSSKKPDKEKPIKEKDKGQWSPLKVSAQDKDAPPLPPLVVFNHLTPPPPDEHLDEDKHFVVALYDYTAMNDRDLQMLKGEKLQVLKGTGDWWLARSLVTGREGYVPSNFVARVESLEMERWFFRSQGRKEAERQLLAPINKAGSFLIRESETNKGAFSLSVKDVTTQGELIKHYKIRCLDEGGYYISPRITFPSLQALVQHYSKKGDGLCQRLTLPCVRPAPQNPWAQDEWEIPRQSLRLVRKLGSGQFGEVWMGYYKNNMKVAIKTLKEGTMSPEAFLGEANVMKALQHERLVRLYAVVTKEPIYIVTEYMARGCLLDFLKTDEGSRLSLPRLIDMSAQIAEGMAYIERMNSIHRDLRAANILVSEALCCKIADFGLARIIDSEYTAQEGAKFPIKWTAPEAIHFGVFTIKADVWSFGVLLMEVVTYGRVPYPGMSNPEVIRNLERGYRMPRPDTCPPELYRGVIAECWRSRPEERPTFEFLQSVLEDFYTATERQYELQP
Sequence of FGFR4 (P22455 22-802, species assumed): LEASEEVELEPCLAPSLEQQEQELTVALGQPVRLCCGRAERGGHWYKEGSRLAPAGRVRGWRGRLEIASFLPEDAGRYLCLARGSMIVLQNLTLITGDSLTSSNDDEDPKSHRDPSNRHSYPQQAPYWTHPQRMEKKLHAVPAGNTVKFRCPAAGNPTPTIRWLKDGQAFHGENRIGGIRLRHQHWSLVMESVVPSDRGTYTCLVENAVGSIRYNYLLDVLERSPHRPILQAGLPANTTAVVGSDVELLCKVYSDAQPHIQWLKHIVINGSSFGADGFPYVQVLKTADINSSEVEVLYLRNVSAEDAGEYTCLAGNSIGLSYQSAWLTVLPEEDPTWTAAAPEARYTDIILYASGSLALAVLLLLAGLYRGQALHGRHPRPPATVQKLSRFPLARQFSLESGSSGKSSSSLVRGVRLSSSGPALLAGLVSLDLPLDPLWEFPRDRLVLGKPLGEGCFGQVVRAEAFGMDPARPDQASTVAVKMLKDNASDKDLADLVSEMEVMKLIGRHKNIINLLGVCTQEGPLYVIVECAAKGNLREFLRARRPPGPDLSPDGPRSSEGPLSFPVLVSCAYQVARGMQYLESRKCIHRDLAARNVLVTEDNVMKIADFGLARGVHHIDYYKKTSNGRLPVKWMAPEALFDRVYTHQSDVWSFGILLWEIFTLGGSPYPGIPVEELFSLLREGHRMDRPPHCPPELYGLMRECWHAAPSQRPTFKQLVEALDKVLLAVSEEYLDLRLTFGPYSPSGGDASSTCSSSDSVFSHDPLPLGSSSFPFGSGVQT
Sequence of CSK (P41240 whole entry, species assumed): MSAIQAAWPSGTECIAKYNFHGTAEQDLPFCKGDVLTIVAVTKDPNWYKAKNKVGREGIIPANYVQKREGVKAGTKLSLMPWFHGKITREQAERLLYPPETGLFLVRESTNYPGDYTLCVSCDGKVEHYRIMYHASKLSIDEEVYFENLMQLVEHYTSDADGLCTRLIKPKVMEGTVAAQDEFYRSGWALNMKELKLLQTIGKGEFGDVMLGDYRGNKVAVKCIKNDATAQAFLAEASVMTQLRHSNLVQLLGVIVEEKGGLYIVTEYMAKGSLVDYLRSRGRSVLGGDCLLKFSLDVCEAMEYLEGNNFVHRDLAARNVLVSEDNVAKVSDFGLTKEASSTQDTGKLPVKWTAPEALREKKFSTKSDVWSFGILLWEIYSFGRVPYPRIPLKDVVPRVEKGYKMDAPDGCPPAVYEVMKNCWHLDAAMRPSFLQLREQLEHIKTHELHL

As to `Nc1ncnc2c1c(-c1ccc(Oc3ccccc3)cc1)nn2[C@@H]1CCCN(S(=O)(=O)c2c(F)c(F)c(F)c(F)c2F)C1` [Compound 5-1, (R)-1-(1-((perfluorophenyl)sulfonyl)piperidin-3-yl)-3-(4-phenoxyphenyl)-1H-pyrazolo[3,4-d]pyrimidin-4-amine], the half-inhibitory concentration (IC50) (in general, the concentration needed to halve the response being measured) was in the range of 100 to 1000 nM on CSK; 100 to 1000 nM on SRC; 0.1 to 10 nM on BMX [3]; 100 to 1000 nM on EGFR; 100 to 1000 nM against ERBB2; 100 to 1000 nM at ERBB4. In addition, on BLK, the half-inhibitory concentration (IC50) is 100 to 1000 nM. The pIC50 – broadly, −log10 of the IC50, conventionally taken in molar units – is 5.21 in test [1], 6.52 to 8.00 on FGFR4 and 8.00 to 10.00 on BMX [4]. For the same compound, the “inhibition profile of BTK by enzyme kinetic analysis” value against BTK [2] is recorded as “time-dependent inhibition”. Further, the “mass increase of BTK protein after incubation with compound” value on BTK [5] is on record as 595 Da.
